Legend:
LecA [1] = molecular target: T1, LecA (Pseudomonas aeruginosa, UniProt Q05097); experiment: surface plasmon resonance (SPR) direct binding to immobilised LecA
T1 construct: made in house
Procedure: All experiments were performed on a BIACORE X100 instrument (GE Healthcare) at 25° C. and a flow rate of 10 μL min^−1. […] LecA was dissolved in 10 mM sodium acetate pH 4.5 (100 μg mL^−1) and injected over the activated chip surface on channel 2 (contact time of 540 s) until the response of ˜4000 RU was reached. Excess free amine groups were capped with an injection of 1 M ethanolamine (contact time 540 s). Bivalent compounds were dissolved in 100% DMSO and subsequently diluted to required concentrations in a running buffer (10 mM phosphate buffer pH 7.4, 2.7 mM KCl, 137 mM NaCl, 100 μM CaCl2, 0.05% Tween 20, 5% DMSO). The bivalent analytes were subjected to single-cycle kinetics analyses (contact time of 120 s and dissociation time of 120 s) consisting of injections of the analytes at 0, 10, 50, 100, and 200 nM over the immobilised-LecA. The chip surface was regenerated by 5× injections of 100 μM 4-nitrophenyl-β-D-galactose (contact time of 120 s). KD determination was performed using BIACORE X100 evaluation software (version 2.0) by applying 1:1 binding model to fit the experimental data. • [1] H. E. Gottlieb, V. Kotlyar, A. Nudelman, J. Org. Chem. 1997, 62, 7512-7515. • [2] M. Seligman, J. Biol. Chem. 1952, 195, 239-249. • [3] S. T. Xue, W. Y. He, L. L. Ma, H. Q. Wang, B. Wang, G. H. Zheng, X. Y. Ji, T. Zhang, Y. H. Li, J. D. Jiang, et al., Molecules 2013, 18, 3789-3805. • [4] Y. Li, H. Mo, G. Lian, B. Yu, Carbohydr. Res. 2012, 363, 14-22. • [5] F. Yang, F. Xie, Y. Zhang, Y. Xia, W. Liu, F. Jiang, C. Lam, Y. Qiao, D. Xie, J. Li, et al., Bioorganic Med. Chem. Lett. 2017, 27, 2166-2170. Synthesis Schemes and Results of Biophysical Assays

LecA [2] = molecular target: T1, LecA; experiment: isothermal titration microcalorimetry (ITC); type: binding; details: Table 5, ITC, 25° C.
Procedure: Expression and purification of LecA as well as competitive binding by fluorescence polarization was performed as described by Joachim et al. (Org. Biomol. Chem. 2016). Microcalorimetry was performed using an ITC200 (GE Healthcare) at highest possible LecA concentration (typically 200-400 μM) in the cell and titration of ligand in the same buffer at 25° C.

LecA [3] = molecular target: T1, LecA; experiment: competitive binding assay based on fluorescence polarisation (FP)
Procedure: Binding of ligands to LecA was evaluated in competitive assay based on fluorescence polarisation.

[4] = 100 μM LecA, 0.5 mM 35, TBS/Ca2+ buffer
[5] = 110 μM LecA, 1 mM 35, TBS/Ca2+ buffer
[6] = IC50, Table 3, TBS/Ca2+ buffer in presence of 25% DMSO
[7] = FP IC50, Table 1, 20 μM LecA, 10 nM reporter ligand 8, TBS/Ca2+ buffer with 25% DMSO (**)

T1 sequence (Q05097 whole entry): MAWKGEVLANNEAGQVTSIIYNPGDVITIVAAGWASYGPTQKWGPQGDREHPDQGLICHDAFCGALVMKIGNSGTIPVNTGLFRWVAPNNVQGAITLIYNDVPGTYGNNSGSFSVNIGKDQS

Compound | Kd (LecA [1]) [µM] | koff (LecA [1]) [s⁻¹] | IC50 (LecA [3]; [7]) [µM] | further results
O=C(NCc1cn(CCOCCOCCOCCNC(=S)Nc2ccc3c(c2)C(=O)OC32c3ccc(O)cc3Oc3cc(O)ccc32)nn1)c1ccc(C(Oc2ccc(/C=N/NC(=O)c3ccc(O[C@@H]4OC(CO)[C@H](O)C(O)C4O)cc3)cc2)Oc2ccc(/C=N/NC(=O)c3ccc(O[C@@H]4OC(CO)[C@H](O)C(O)C4O)cc3)cc2)cc1 (stereo partly drawn) [Compound 13] | 0.0372 ± 0.0029 | 0.00593 ± 0.00051 |  | kon (LecA [1]; Table 2, SPR, three independent experiments): 160 ± 19 ×10^3/Ms
N.N.O=C(CCc1ccc(O[C@@H]2OC(CO)[C@H](O)C(O)C2O)cc1)Nc1ccc(CCc2ccc(NC(=O)CCc3ccc(O[C@@H]4OC(CO)[C@H](O)C(O)C4O)cc3)cc2S(=O)(=O)O)c(S(=O)(=O)O)c1 (stereo partly drawn) [Compound 35] |  |  |  | Kd (LecA [2]; [4]): 0.081 µM; Kd (LecA [2]; [5]): 0.146 µM; N (ITC stoichiometry) (LecA [2]; [4]): 0.55; ΔH (LecA [2]; [4]): -19.2 kcal/mol; ΔS (LecA [2]; [4]): −31.8 cal/mol/deg; N (ITC stoichiometry) (LecA [2]; [5]): 0.54; ΔH (LecA [2]; [5]): -19.5 kcal/mol; ΔS (LecA [2]; [5]): −34.3 cal/mol/deg; IC50 (LecA [3]; [6]): 4 ± 2.4 µM
O=C(NN=Cc1ccc(Oc2ccc(C=NNC(=O)c3cccc(OC4OC(CO)C(O)C(O)C4O)c3)cc2)cc1)c1cccc(OC2OC(CO)C(O)C(O)C2O)c1 (stereo not drawn) [Compound A6m] | 0.0166 ± 0.002 |  | 4.1 ± 3 | 
O=C(NN=Cc1ccc(Oc2ccc(C=NNC(=O)c3ccc(OC4OC(CO)C(O)C(O)C4O)cc3)cc2)cc1)c1ccc(OC2OC(CO)C(O)C(O)C2O)cc1 (stereo not drawn) [Compound A6p] | 0.0217 ± 0.0076 |  | 4.3 ± 2.3 | 
O=C(NN=Cc1ccc(OCOc2ccc(C=NNC(=O)c3cccc(OC4OC(CO)C(O)C(O)C4O)c3)cc2)cc1)c1cccc(OC2OC(CO)C(O)C(O)C2O)c1 (stereo not drawn) [Compound B6m] | 0.0143 ± 0.006 |  | 3.1 ± 2 | 
O=C(NN=Cc1ccc(OCOc2ccc(C=NNC(=O)c3ccc(OC4OC(CO)C(O)C(O)C4O)cc3)cc2)cc1)c1ccc(OC2OC(CO)C(O)C(O)C2O)cc1 (stereo not drawn) [Compound B6p] | 0.0305 ± 0.028 |  | 3.7 ± 1.8 | 
O=C(NN=Cc1ccc(OCCOc2ccc(C=NNC(=O)c3cccc(OC4OC(CO)C(O)C(O)C4O)c3)cc2)cc1)c1cccc(OC2OC(CO)C(O)C(O)C2O)c1 (stereo not drawn) [Compound C6m] | 0.0149 ± 0.0119 |  | 2 ± 1.9 | 
O=C(NN=Cc1ccc(OCCOc2ccc(C=NNC(=O)c3ccc(OC4OC(CO)C(O)C(O)C4O)cc3)cc2)cc1)c1ccc(OC2OC(CO)C(O)C(O)C2O)cc1 (stereo not drawn) [Compound C6p] | 0.0417 ± 0.0239 |  | 3.8 ± 1.6 | 
O=C(NN=Cc1ccc(OCCCOc2ccc(C=NNC(=O)c3cccc(OC4OC(CO)C(O)C(O)C4O)c3)cc2)cc1)c1cccc(OC2OC(CO)C(O)C(O)C2O)c1 (stereo not drawn) [Compound D6m] | 0.0659 ± 0.0062 |  |  | 
O=C(NN=Cc1ccc(OCCCOc2ccc(C=NNC(=O)c3ccc(OC4OC(CO)C(O)C(O)C4O)cc3)cc2)cc1)c1ccc(OC2OC(CO)C(O)C(O)C2O)cc1 (stereo not drawn) [Compound D6p] | 0.05 ± 0.0194 |  | 3.6 ± 1.7 | 
O=C(NN=Cc1ccc(OCCCCOc2ccc(C=NNC(=O)c3cccc(OC4OC(CO)C(O)C(O)C4O)c3)cc2)cc1)c1cccc(OC2OC(CO)C(O)C(O)C2O)c1 (stereo not drawn) [Compound E6m] | 0.0257 ± 0.0192 |  | 6.3 ± 6.4 | 
O=C(NN=Cc1ccc(OCCCCOc2ccc(C=NNC(=O)c3ccc(OC4OC(CO)C(O)C(O)C4O)cc3)cc2)cc1)c1ccc(OC2OC(CO)C(O)C(O)C2O)cc1 (stereo not drawn) [Compound E6p] | 0.094 ± 0.0289 |  | 4.9 ± 1.4 | 
O=C(/C=C/c1ccc(O[C@@H]2O[C@H](CO)[C@H](O)[C@H](O)[C@H]2O)cc1)Nc1ccc(Oc2ccc(NC(=O)/C=C/c3ccc(O[C@@H]4O[C@H](CO)[C@H](O)[C@H](O)[C@H]4O)cc3)cc2)cc1 [Compound G18] |  | 0.00596 ± 0.00206 |  | 
O=C(CCc1ccc(O[C@@H]2O[C@H](CO)[C@H](O)[C@H](O)[C@H]2O)cc1)Nc1ccc(Oc2ccc(NC(=O)CCc3ccc(O[C@@H]4O[C@H](CO)[C@H](O)[C@H](O)[C@H]4O)cc3)cc2)cc1 [Compound G30] |  | 0.00349 ± 8e-05 |  | 
O=C(/C=C/c1ccc(O[C@@H]2O[C@H](CO)[C@H](O)[C@H](O)[C@H]2O)cc1)Nc1ccc(OCOc2ccc(NC(=O)/C=C/c3ccc(O[C@@H]4O[C@H](CO)[C@H](O)[C@H](O)[C@H]4O)cc3)cc2)cc1 [Compound H18] |  | 0.00379 ± 0.00089 |  | 
O=C(CCc1ccc(O[C@@H]2O[C@H](CO)[C@H](O)[C@H](O)[C@H]2O)cc1)Nc1ccc(OCOc2ccc(NC(=O)CCc3ccc(O[C@@H]4O[C@H](CO)[C@H](O)[C@H](O)[C@H]4O)cc3)cc2)cc1 [Compound H30] |  | 0.00462 ± 0.0002 |  | 
O=C(/C=C/c1ccc(O[C@@H]2O[C@H](CO)[C@H](O)[C@H](O)[C@H]2O)cc1)Nc1ccc(OCCOc2ccc(NC(=O)/C=C/c3ccc(O[C@@H]4O[C@H](CO)[C@H](O)[C@H](O)[C@H]4O)cc3)cc2)cc1 [Compound I18] |  | 0.00249 ± 0.00028 |  | 
O=C(CCc1ccc(O[C@@H]2O[C@H](CO)[C@H](O)[C@H](O)[C@H]2O)cc1)Nc1ccc(OCCOc2ccc(NC(=O)CCc3ccc(O[C@@H]4O[C@H](CO)[C@H](O)[C@H](O)[C@H]4O)cc3)cc2)cc1 [Compound I30] |  | 0.00284 ± 6e-05 |  | 
O=C(/C=C/c1ccc(O[C@@H]2O[C@H](CO)[C@H](O)[C@H](O)[C@H]2O)cc1)Nc1ccc(OCCCOc2ccc(NC(=O)/C=C/c3ccc(O[C@@H]4O[C@H](CO)[C@H](O)[C@H](O)[C@H]4O)cc3)cc2)cc1 [Compound J18] |  | 0.00251 ± 0.00022 |  | 
O=C(CCc1ccc(O[C@@H]2O[C@H](CO)[C@H](O)[C@H](O)[C@H]2O)cc1)Nc1ccc(OCCCOc2ccc(NC(=O)CCc3ccc(O[C@@H]4O[C@H](CO)[C@H](O)[C@H](O)[C@H]4O)cc3)cc2)cc1 [Compound J30] |  | 0.00345 ± 0.00013 |  | 
O=C(/C=C/c1ccc(O[C@@H]2O[C@H](CO)[C@H](O)[C@H](O)[C@H]2O)cc1)Nc1ccc(OCCCCOc2ccc(NC(=O)/C=C/c3ccc(O[C@@H]4O[C@H](CO)[C@H](O)[C@H](O)[C@H]4O)cc3)cc2)cc1 [Compound K18] |  | 0.00388 ± 0.00043 |  | 
O=C(CCc1ccc(O[C@@H]2O[C@H](CO)[C@H](O)[C@H](O)[C@H]2O)cc1)Nc1ccc(OCCCCOc2ccc(NC(=O)CCc3ccc(O[C@@H]4O[C@H](CO)[C@H](O)[C@H](O)[C@H]4O)cc3)cc2)cc1 [Compound K30] |  | 0.00366 ± 0.00042 |  | 
O=C(CCc1ccc(O[C@@H]2O[C@H](CO)[C@H](O)[C@H](O)[C@H]2O)cc1)Nc1ccc(OCCOc2ccc(NC(=O)CCc3ccc(O[C@@H]4O[C@H](CO)[C@H](O)[C@H](O)[C@H]4O)cc3)cn2)nc1 [Compound M31] |  | 0.00141 ± 5e-05 |  | IC50 (LecA [3]; [6]): 4.1 ± 2.2 µM
O=C(/C=C/c1ccc(O[C@@H]2O[C@H](CO)[C@H](O)[C@H](O)[C@H]2O)cc1)Nc1ccc(OCCOc2ccc(NC(=O)/C=C/c3ccc(O[C@@H]4O[C@H](CO)[C@H](O)[C@H](O)[C@H]4O)cc3)cn2)nc1 [Compound M32] |  | 0.00165 ± 0.00012 |  | IC50 (LecA [3]; [6]): 7.5 ± 3.7 µM
O=C(CCc1ccc(O[C@@H]2O[C@H](CO)[C@H](O)[C@H](O)[C@H]2O)cc1)Nc1ccc(OCCCOc2ccc(NC(=O)CCc3ccc(O[C@@H]4O[C@H](CO)[C@H](O)[C@H](O)[C@H]4O)cc3)cn2)nc1 [Compound N31] |  |  |  | IC50 (LecA [3]; [6]): 2.7 ± 1.1 µM
O=C(/C=C/c1ccc(O[C@@H]2O[C@H](CO)[C@H](O)[C@H](O)[C@H]2O)cc1)Nc1ccc(OCCCOc2ccc(NC(=O)/C=C/c3ccc(O[C@@H]4O[C@H](CO)[C@H](O)[C@H](O)[C@H]4O)cc3)cn2)nc1 [Compound N32] |  |  |  | IC50 (LecA [3]; [6]): 4.3 ± 2 µM
O=C(CCc1ccc(O[C@@H]2O[C@H](CO)[C@H](O)[C@H](O)[C@H]2O)cc1)Nc1ccc(OCCCCOc2ccc(NC(=O)CCc3ccc(O[C@@H]4O[C@H](CO)[C@H](O)[C@H](O)[C@H]4O)cc3)cn2)nc1 [Compound O31] |  |  |  | IC50 (LecA [3]; [6]): 3.2 ± 1.8 µM
O=[N+]([O-])c1ccc(O[C@@H]2O[C@H](CO)[C@H](O)[C@H](O)[C@H]2O)cc1 [pNO2-Ph-β-Gal, reference compound] |  |  |  | IC50 (LecA [3]; [6]): 40.4 ± 12.9 µM
NNC(=O)c1ccc(O[C@@H]2OC(CO)[C@H](O)C(O)C2O)cc1 (stereo partly drawn) [reference compound] |  |  | 30.3 | IC50 (LecA [3]; FP IC50, Table 1, 20 μM LecA, 10 nM reporter ligand 8, TBS/Ca2+ buffer with 4% DMSO (*)): 22.6 ± 8.7 µM

From patent US12545699B2, “Bivalent LECA inhibitors targeting biofilm formation of Pseudomonas aeruginosa” (HELMHOLTZ-ZENTRUM FÜR INFEKTIONSFORSCHUNG GMBH, priority 2019, dated 2026)
